Source: PubChem BioAssay AID1259407 (Chemical Carcinogenesis Research Information System (CCRIS), 2018)
Calls of active or inactive are those of the source. The rule behind the calls is not given here.

Test system: CCRIS mutagenicity, Ames/micronucleus/aberration tests
Experiment: CCRIS mutagenicity studies
[1] = Test System: AMES SALMONELLA TYPHIMURIUM, Strain/Indicator: TA100, Metabolic Activation: NONE, Method: STANDARD PLATE
[2] = Test System: AMES SALMONELLA TYPHIMURIUM, Strain/Indicator: TA97, Metabolic Activation: NONE, Method: PREINCUBATION
[3] = Test System: AMES SALMONELLA TYPHIMURIUM, Strain/Indicator: TA98, Metabolic Activation: NONE, Method: PREINCUBATION
[4] = Test System: AMES SALMONELLA TYPHIMURIUM, Strain/Indicator: TA100, Metabolic Activation: NONE, Method: PREINCUBATION
[5] = Test System: AMES SALMONELLA TYPHIMURIUM, Strain/Indicator: TA1535, Metabolic Activation: NONE, Method: PREINCUBATION

CCC(=O)C1c2cccc(O)c2C(=O)c2c(O)cccc21
mutagenic call (Test System: AMES SALMONELLA TYPHIMURIUM, Strain/Indicator: TA1537, Metabolic Activation: NONE, Method: STANDARD PLATE): active; positive | mutagenic call (Test System: AMES SALMONELLA TYPHIMURIUM, Strain/Indicator: TA1537, Metabolic Activation: RAT, LIVER, S-9, PHENOBARBITAL AND BETA-NAPHTHOFLAVONE, Method: STANDARD PLATE): active; positive | mutagenic call (Test System: E. COLI, Strain/Indicator: WP2, Metabolic Activation: NONE, Method: STANDARD PLATE): inactive; negative | mutagenic call (Test System: E. COLI, Strain/Indicator: WP2, Metabolic Activation: RAT, LIVER, S-9, AROCLOR 1254, Method: STANDARD PLATE): inactive; negative | mutagenic call (Test System: E. COLI, Strain/Indicator: WP2 UVRA, Metabolic Activation: NONE, Method: STANDARD PLATE): inactive; negative | mutagenic call (Test System: E. COLI, Strain/Indicator: WP2 UVRA, Metabolic Activation: RAT, LIVER, S-9, AROCLOR 1254, Method: STANDARD PLATE): inactive; negative

O=[N+]([O-])c1c2c(c3ccc4cccc5ccc1c3c45)CCCC2
mutagenic call (Test System: AMES SALMONELLA TYPHIMURIUM, Strain/Indicator: TA98, Metabolic Activation: NONE, Method: STANDARD PLATE): inactive; negative | mutagenic call [1]: inactive; negative

CC(C)(Br)C(=O)NCc1ccccc1
mutagenic call (Test System: AMES SALMONELLA TYPHIMURIUM, Strain/Indicator: TA100, Metabolic Activation: MOUSE, LIVER, S-9, AROCLOR 1254, Method: STANDARD PLATE): inactive; negative | mutagenic call [1]: inactive; negative

CC(Br)(CBr)COP(=O)(OCC(C)(Br)CBr)OCC(C)(Br)CBr (stereo unspecified)
mutagenic call (Test System: AMES SALMONELLA TYPHIMURIUM, Strain/Indicator: TA100, Metabolic Activation: RAT, LIVER, MICROSOMES, PHENOBARBITAL, Method: PREINCUBATION): inactive; negative | mutagenic call (Test System: AMES SALMONELLA TYPHIMURIUM, Strain/Indicator: TA100, Metabolic Activation: RAT, LIVER, MICROSOMES, Method: PREINCUBATION): inactive; negative

N#CCCCCC#N
mutagenic call (Test System: AMES SALMONELLA TYPHIMURIUM, Strain/Indicator: TA97, Metabolic Activation: HAMSTER, LIVER, S-9, AROCLOR 1254 (10 OR 30%), Method: PREINCUBATION): inactive; negative | mutagenic call [2]: inactive; negative | mutagenic call (Test System: AMES SALMONELLA TYPHIMURIUM, Strain/Indicator: TA97, Metabolic Activation: RAT, LIVER, S-9, AROCLOR 1254 (10 OR 30%), Method: PREINCUBATION): inactive; negative | mutagenic call (Test System: AMES SALMONELLA TYPHIMURIUM, Strain/Indicator: TA98, Metabolic Activation: HAMSTER, LIVER, S-9, AROCLOR 1254 (10 OR 30%), Method: PREINCUBATION): inactive; negative | mutagenic call [3]: inactive; negative | mutagenic call (Test System: AMES SALMONELLA TYPHIMURIUM, Strain/Indicator: TA98, Metabolic Activation: RAT, LIVER, S-9, AROCLOR 1254 (10 OR 30%), Method: PREINCUBATION): inactive; negative | mutagenic call (Test System: AMES SALMONELLA TYPHIMURIUM, Strain/Indicator: TA100, Metabolic Activation: HAMSTER, LIVER, S-9, AROCLOR 1254 (10 OR 30%), Method: PREINCUBATION): inactive; negative | mutagenic call [4]: inactive; negative | mutagenic call (Test System: AMES SALMONELLA TYPHIMURIUM, Strain/Indicator: TA100, Metabolic Activation: RAT, LIVER, S-9, AROCLOR 1254 (10 OR 30%), Method: PREINCUBATION): inactive; negative | mutagenic call (Test System: AMES SALMONELLA TYPHIMURIUM, Strain/Indicator: TA1535, Metabolic Activation: HAMSTER, LIVER, S-9, AROCLOR 1254 (10 OR 30%), Method: PREINCUBATION): inactive; negative | mutagenic call [5]: inactive; negative | mutagenic call (Test System: AMES SALMONELLA TYPHIMURIUM, Strain/Indicator: TA1535, Metabolic Activation: RAT, LIVER, S-9, AROCLOR 1254 (10 OR 30%), Method: PREINCUBATION): inactive; negative

Cc1ccc(C#N)cc1
mutagenic call (Test System: AMES SALMONELLA TYPHIMURIUM, Strain/Indicator: TA97, Metabolic Activation: HAMSTER, LIVER, S-9, AROCLOR 1254 (10%), Method: PREINCUBATION): inactive; negative | mutagenic call (Test System: AMES SALMONELLA TYPHIMURIUM, Strain/Indicator: TA97, Metabolic Activation: HAMSTER, LIVER, S-9, AROCLOR 1254 (30%), Method: PREINCUBATION): inactive; negative | mutagenic call [2]: inactive; negative | mutagenic call (Test System: AMES SALMONELLA TYPHIMURIUM, Strain/Indicator: TA97, Metabolic Activation: RAT, LIVER, S-9, AROCLOR 1254 (10%), Method: PREINCUBATION): inactive; negative | mutagenic call (Test System: AMES SALMONELLA TYPHIMURIUM, Strain/Indicator: TA97, Metabolic Activation: RAT, LIVER, S-9, AROCLOR 1254 (30%), Method: PREINCUBATION): inactive; negative | mutagenic call (Test System: AMES SALMONELLA TYPHIMURIUM, Strain/Indicator: TA98, Metabolic Activation: HAMSTER, LIVER, S-9, AROCLOR 1254 (10%), Method: PREINCUBATION): inactive; negative | mutagenic call (Test System: AMES SALMONELLA TYPHIMURIUM, Strain/Indicator: TA98, Metabolic Activation: HAMSTER, LIVER, S-9, AROCLOR 1254 (30%), Method: PREINCUBATION): inactive; negative | mutagenic call [3]: inactive; negative | mutagenic call (Test System: AMES SALMONELLA TYPHIMURIUM, Strain/Indicator: TA98, Metabolic Activation: RAT, LIVER, S-9, AROCLOR 1254 (10%), Method: PREINCUBATION): inactive; negative | mutagenic call (Test System: AMES SALMONELLA TYPHIMURIUM, Strain/Indicator: TA98, Metabolic Activation: RAT, LIVER, S-9, AROCLOR 1254 (30%), Method: PREINCUBATION): inactive; negative | mutagenic call (Test System: AMES SALMONELLA TYPHIMURIUM, Strain/Indicator: TA100, Metabolic Activation: HAMSTER, LIVER, S-9, AROCLOR 1254 (10%), Method: PREINCUBATION): inactive; negative | mutagenic call (Test System: AMES SALMONELLA TYPHIMURIUM, Strain/Indicator: TA100, Metabolic Activation: HAMSTER, LIVER, S-9, AROCLOR 1254 (30%), Method: PREINCUBATION): inactive; negative | mutagenic call [4]: inactive; negative | mutagenic call (Test System: AMES SALMONELLA TYPHIMURIUM, Strain/Indicator: TA100, Metabolic Activation: RAT, LIVER, S-9, AROCLOR 1254 (10%), Method: PREINCUBATION): inactive; negative | mutagenic call (Test System: AMES SALMONELLA TYPHIMURIUM, Strain/Indicator: TA100, Metabolic Activation: RAT, LIVER, S-9, AROCLOR 1254 (30%), Method: PREINCUBATION): inactive; negative | mutagenic call (Test System: AMES SALMONELLA TYPHIMURIUM, Strain/Indicator: TA1535, Metabolic Activation: HAMSTER, LIVER, S-9, AROCLOR 1254 (10%), Method: PREINCUBATION): inactive; negative | mutagenic call (Test System: AMES SALMONELLA TYPHIMURIUM, Strain/Indicator: TA1535, Metabolic Activation: HAMSTER, LIVER, S-9, AROCLOR 1254 (30%), Method: PREINCUBATION): inactive; negative | mutagenic call [5]: inactive; negative | mutagenic call (Test System: AMES SALMONELLA TYPHIMURIUM, Strain/Indicator: TA1535, Metabolic Activation: RAT, LIVER, S-9, AROCLOR 1254 (10%), Method: PREINCUBATION): inactive; negative | mutagenic call (Test System: AMES SALMONELLA TYPHIMURIUM, Strain/Indicator: TA1535, Metabolic Activation: RAT, LIVER, S-9, AROCLOR 1254 (30%), Method: PREINCUBATION): inactive; negative

c1cnc2c(c1)[C@@H]1O[C@H]1C1OC21 (stereo partly specified)
mutagenic call [1]: inactive; negative | mutagenic call (Test System: AMES SALMONELLA TYPHIMURIUM, Strain/Indicator: TA100, Metabolic Activation: RAT, LIVER, S-9, AROCLOR 1254 (10% OR 20%), Method: STANDARD PLATE): inactive; negative
